Experiment: Inhibition of yeast alpha glucosidase at pH 6.8
Parameters: species or system Saccharomyces cerevisiae

Question: With `O=c1c2cc3cccc(O)c3cc2oc2cc(O)cc(O)c12` as the compound, how does the IC50 read?
Answer: 8 µM

Question: Which IC50 does the source give for `O=c1c2c(O)cc(O)cc2oc2ccc3ccccc3c12` here?
Answer: 39.9 µM

Question: Which IC50 does the source give for `Oc1cc(O)c2c(c1)Oc1cc3ccccc3cc1C2` here?
Answer: 27.8 µM

Question: With `O=c1c2ccccc2oc2cc(O)cc(O)c12` as the compound, how does the IC50 read?
Answer: 161 µM

Question: For `O=c1c2cc3ccccc3cc2oc2cc(O)cc(O)c12`, which IC50 is on record?
Answer: 9.3 µM

Question: With `O=c1c2cc3ccccc3cc2oc2c([N+](=O)[O-])c(O)cc(O)c12` as the compound, how does the IC50 read?
Answer: 20.1 µM

Question: Which IC50 does the source give for `COc1cc(O)c2c(=O)c3cc4ccccc4cc3oc2c1` here?
Answer: 31.3 µM

Question: For `OC[C@H]1NC(O)C[C@@H](O)[C@@H]1O` (stereo not given in full), which IC50 is on record?
Answer: 26.4 µM

Question: With `Oc1cc(O)c2c(c1)Oc1ccc3ccccc3c1C2` as the compound, how does the IC50 read?
Answer: 34.9 µM

Question: With `O=c1c2cc3cc(O)ccc3cc2oc2cc(O)cc(O)c12` as the compound, how does the IC50 read?
Answer: 5.8 µM
